Measurements: patent US20240317806A1, “TOPICAL PEPTIDE FORMULATION FOR THE TREATMENT OF SEXUAL DYSFUNCTION” (priority 2023, published 2024)

What was measured:
[1] = Mean arterial pressure and dermal irritation in the erectile function study; format: in vivo, Sprague Dawley rats; settings: for MAP: mean ± standard deviation
Protocol: (§1) Erectile function was evaluated by means of the intracavernosal pressure/mean arterial pressure (ICP/MAP) ratio at 4 different times (0, 15, 30 and 45 minutes) after application of ganglionic electrical functional stimulus (EFS) of 8 Hz.
(§2) The formulated peptide (both with TFA counter-ion and Acetate) was applied topically to the penis of the rats 15 minutes before ICP/MAP measurements, at a dose of 1000 μg diluted in 200 μL of the formulation (dose of 4 mg/Kg), reaching a concentration of 5 mg/mL or 0.5% w/v of the peptide in the formulation. Sildenafil was applied SC, at a dose of 25 mg/Kg (1 mL/Kg) 30 minutes before ICP/MAP measurements.

[2] = system: erectile function of healthy rats; test: Erectile function (ICP/MAP ratio) after ganglionic electrical stimulation; format: in vivo, Sprague Dawley rats; settings: peptide topical 4 mg/Kg 15 min before; sildenafil SC 25 mg/Kg 30 min before; EFS 8 Hz; 0-45 min
From the text: For this study, PnPP-19 was produced with TFA or Acetate as a counter-ion. Usually, peptides with TFA as a counter-ion are used in the preclinical stage of development; nevertheless, for safety purposes, the counter-ion is changed to acetate for clinical stage of development. […] Also, to compare if the counter-ion exchange would impact the biological effect of PnPP-19, two peptide batches was produced: one with the counter-ion TFA and another with the counter-ion Acetate. Sildenafil was used as a positive control (subcutaneously administration).
as §1, §2

[3] = Biodistribution and pharmacokinetics after topical administration of radiolabeled PnPP-19 in FAPP20; format: in vivo, rats
Protocol: In order to evaluate the in vivo permeation of the peptide (and/or its fragments) in the formulation FAPP20, a biodistribution study was carried out in healthy rats. The peptide was radiolabeled with iodine [^131I] NaI using chloramine T method.
The study was conducted considering the dose of 5 mg/ml; and the maximum area of genital application. The final application volume was 100 μL that results in a dose of 2 mg/kg. The evaluation of biodistribution was carried out after the administration of a single dose of the peptide, applied topically to the skin of the penis after trichotomy of the rat's genital area.
Regarding biodistribution data, radiolabeled peptide concentrations were higher in skin, foreskin and SMC tissue at all times studied. In the first analyzed time, of 15 minutes, it was already possible to detect the peptide in the target tissues: the SMC layer, and the first layer of the skin, where the penile nerves are found (herein called of foreskin), showing that the peptide is rapidly absorbed into the skin. Within 30 minutes, its detection falls at the initial application site (skin), and increases in the foreskin, showing that it continues to be absorbed, and remains stable in the SMC layer. Within 60 minutes it is practically undetectable in tissues (FIG. 4).
For the pharmacokinetic (PK) study, the blood of the animals was collected at 0 h (predose), 15, 30 and 60 minutes, 3, 8 and 24 hours. All samples collected were quantified in a Wizard 3 gamma counter (PerkinElmer) for later calculation of the percentage of dose applied per gram of organ. […] While 42% of the applied dose is in the first layer of the skin, the peptide is detected in up to 18% in the SMC layer. Both peptide and its fragments were not found systemically (<1%) in the organs of choice (kidneys, testicles and epididymis) or in the blood, at any of the evaluated time-points, showing that the formulation remains in the application site, with no systemic absorption.

[4] = Physicochemical properties of PnPP-19 peptide (pI, pKa)
From the text: Aspects of the disclosure relate to pharmaceutical compositions comprising a PnPP-19 peptide (e.g., a peptide comprising or consisting of the amino acid sequence set forth in SEQ ID NO: 1). PnPP-19 is a synthetic, non-toxic peptide composed of 19 amino acid residues originating from the PnTx2-6 toxin, which was isolated from the venom of the Brazilian armadeira spider (Phoneutria nigriventer). In some embodiments, the isolated peptide (e.g., PnPP-19) is presented as a freeze-dried white powder (e.g., a solid physical form). In some embodiments, PnPP-19 is an amphipathic peptide with about 26% cationic amino acid residues. In some embodiments, PnPP-19 is positively charged at pH 7.

[5] = Release test in Franz vertical diffusion cells; format: in vitro ADME; settings: peptide applied in saline or in the buffer of the formulations; after 6 hours (peak) and until 24 hours
Protocol: For the release test, a cellulose acetate membrane was used to generate the physical barrier between a donor compartment, where the formulations are added, and the recipient compartment, where the peptide is measured.
(§3) The assays were conducted in Franz vertical diffusion cells with 1.767 cm^2 of area for diffusion of the peptide, containing a donor compartment with a capacity of 1 mL and a recipient compartment with a capacity of 7 mL. To the recipient compartment, 7 mL of the biorelevant solution were added, in which the media selected by preliminary studies was 20 mM sodium acetate buffer pH 5.0+0.5% Tween® 20. […] The cells were placed in a thermostatic bath, with a temperature of 37° C.±0.5° C., with the goal to mimic the surface temperature. The bioreceptor medium was subjected to 350 rpm agitation. In times 0.5-, 1-, 2-, 4-, 6- and 24 h, collections of 1 mL were made from the recipient compartment, in order to measure the peptide content.

[6] = Second permeation test in Franz cells; format: in vitro ADME; settings: Strat-M membrane; applied in the FAPP20 buffer (20 mM sodium acetate buffer solution)
Protocol: In the first permeation assay, the physical barrier was the whole pig skin, which mimics the human stratum corneum. In the second permeation test, the physical barrier was the Strat-M membrane, which mimics the human stratum corneum.
as §3
In the first permeation assay, PnPP-19 was formulated with 6 μM of alpha cyclodextrin or with transcutol 15%.
Based on the release results described above, the 20 mM sodium acetate buffer pH 5.0+0.5% Tween® 20 was confirmed as the best receiving medium to be used in the permeation assay with Strat M membrane.

[7] = Phase 1 clinical study: pharmacokinetics; format: in vivo, human; settings: 12 subjects
Protocol: Related to the pharmacokinetic analysis, the following outcomes were considered: detection of BZ371A, and its fragments, in the blood at the following collected times: pre-dose, 15, 30, 60, 180 and 360 minutes; if detected, determine the pharmacokinetic parameters: maximum concentration, half-life, area under the curve, clearance, volume of distribution.

Row | Compound | MAP ([1]; 0 min) | MAP ([1]; 15 min) | MAP ([1]; 30 min) | MAP ([1]; 45 min) | effect on MAP / systemic hypotension compared to vehicle ([1]; rats) | erectile function (ICP/MAP ratio) compared to negative control (vehicle) [2] | applied dose/gram found in CC tissue (SMC layer) ([3]; 15 minutes after topical application to rat penis, normalized) | applied dose/gram found in the skin ([3]; 15 minutes after topical application to rat penis, normalized to total in all tissues) [%] | peptide and fragments found systemically (kidneys, testicles, epididymis, blood) ([3]; any of the evaluated time-points up to 24 hours) [%] | pKa [4] | quantification of PnPP-19 in the receptor media (controls) [5] | detection of PnPP-19 in the receptor compartment (control) [6] | plasma concentrations of BZ371A fragments ([7]; no detectable concentrations, limit of detection=40 ng/ml) [ng/mL] | plasma concentrations of BZ371A ([7]; no quantifiable concentrations, LIQ=50 ng/ml, pre-dose to 360 minutes) [ng/mL]
1 | CCCc1nn(C)c2c(=O)[nH]c(-c3cc(S(=O)(=O)N4CCN(C)CC4)ccc3OCC)nc12 [Sildenafil, sildenafil] | 87 ± 10 (**) mmHg | 93 ± 8 (*) mmHg | 93 ± 8 (***) mmHg | 94 ± 7 (***) mmHg | significant decrease in MAP | not superior to the negative control group |  |  |  |  |  |  |  | 
2 | Ac-GERRQYFWIAWYKLANSKK-NH2 [PnPP-19] |  |  |  |  |  |  | up to 18% | 42 | < 1 | 12.4 | can be quantified in the receptor media | detected in the receptor compartment since initial time (0.5 h) | < 40 | < 50
